In the NIST ThermoML archive (doi:10.1016/j.jct.2018.02.019):

Assay: mn = molality of the nth substance listed, in mol/kg
Details: 298.15 K, Ring tensiometer

C[C@H](CCC(=O)NCCS(=O)(=O)[O-])[C@H]1CC[C@H]2[C@@H]3[C@H](O)C[C@@H]4C[C@H](O)CC[C@]4(C)[C@H]3C[C@H](O)[C@]12C.[Na+] [sodium taurocholate] + O
Details	surface tension liquid-gas [mN/m]
m1 = 0.00062	53.39
m1 = 0.00093	50.95
m1 = 0.00149	47.64
m1 = 0.00208	45.58
m1 = 0.00263	44.18
m1 = 0.00313	43
m1 = 0.00354	42.08
m1 = 0.00392	41.48
m1 = 0.00455	40.95
m1 = 0.00489	40.5
m1 = 0.00556	40.48
m1 = 0.0062	40.51
m1 = 0.00714	40.45
m1 = 0.00804	40.5
